In patent publication US8288441B2, “Compositions comprising a physiological coolant” (Givaudan Nederland Services B.V., priority 2007, dated 2012):

Tested on: forearm skin
Assay: Perception of cooling after applying aqueous ethanol solutions to the forearms of volunteers
Type: in vivo, human
Text: A simple aqueous ethanol solution (50:50) containing 1% by weight of lactoyl ethanolamide was applied to one forearm. The aqueous ethanol solution alone (control) was then applied to the other forearm at a similar dosage, and the perception of cooling from either arm noted. This was repeated on 10 volunteers in total.
A simple aqueous ethanol solution (50:50) containing 0.2% by weight of L-menthol and 1% by weight of lactoyl ethanolamide was applied to one forearm at a concentration of 2 drops per 10 square centimetres of skin. The aqueous ethanol solution containing just 0.2% by weight L-menthol was then applied to the other forearm at the same dose, and the perception of cooling from either arm noted. This was repeated on 10 volunteers.
A simple aqueous ethanol solution (50:50) containing 0.2% by weight of L-menthol and 0.5% by weight of lactoyl ethanolamide was applied to one forearm at a concentration of 2 drops per 10 square centimetres of skin. The aqueous ethanol solution containing 0.2% by weight L-menthol was then applied to the other forearm at the same dose, and the perception of cooling from either arm noted over 4 hours at 30 minute intervals. This was repeated on 12 volunteers.
A simple aqueous ethanol solution (50:50) containing 1% by weight of menthyl lactate and 1% by weight of lactoyl ethanolamide was applied to one forearm at a concentration of 2 drops per 10 square centimetres of skin. The aqueous ethanol solution containing 1% by weight menthyl lactate was then applied to the other forearm at the same dose, and the perception of cooling from either arm noted over 4 hours at 30 minute intervals. This was repeated on 12 volunteers.
A simple aqueous ethanol solution (50:50) containing 1.0% by weight of menthone glyceryl ketal and 0.5% by weight of lactoyl ethanolamide was applied to one forearm at a concentration of 2 drops per 10 square centimetres of skin. The aqueous ethanol solution containing 1% by weight menthone glyceryl ketal was then applied to the other forearm at the same dose, and the perception of cooling from either arm noted over 4 hours at 1 hour intervals. This was repeated on 10 volunteers.
A simple aqueous ethanol solution (50:50) containing 0.75% by weight of menthyl glyceryl ether and 0.5% by weight of lactoyl ethanolamide was applied to one forearm at a concentration of 2 drops per 10 square centimetres of skin. An aqueous ethanol solution containing 1% by weight menthyl glyceryl ether was then applied to the other forearm at the same dose, and the perception of cooling from either arm noted over a 4 hour period. This was repeated on 12 volunteers.
A simple aqueous ethanol solution (50:50) containing 1% by weight of menthyl pyrrolidone carboxylate and 0.5% by weight of lactoyl ethanolamide was applied to one forearm at a concentration of 2 drops per 10 square centimetres of skin. An aqueous ethanol solution containing 1% by weight menthyl pyrrolidone carboxylate was then applied to the other forearm at the same dose and the perception of cooling from either arm noted over a 6 hour period. This was repeated on 33 volunteers.

[1] = Example 7, 1% menthyl pyrrolidone carboxylate + 0.5% lactoyl ethanolamide vs 1% menthyl pyrrolidone carboxylate alone, 6 hour period, 33 volunteers

`CC1CCC(C(C)C)C2(C1)OCC(CO)O2` (stereo not shown) [menthone glyceryl ketal] was tested, and the “period of time over which cooling was felt” value (Example 5, 1% menthone glyceryl ketal with or without 0.5% lactoyl ethanolamide, noted over 4 hours at 1 hour intervals, 10 volunteers) was “about 3 hours”.
For `CC(C)[C@@H]1CC[C@@H](C)C[C@H]1O` [L-menthol], the “period of time over which cooling was felt” value (Example 3, 0.2% L-menthol with or without 0.5% lactoyl ethanolamide, noted over 4 hours at 30 minute intervals, 12 volunteers) was “about 2 hours”.
In the case of `CC1CCC(C(C)C)C(OC(=O)C(C)O)C1` (stereo not shown) [menthyl lactate], the “period of time over which cooling was felt” value (Example 4, 1% menthyl lactate with or without 1% lactoyl ethanolamide, noted over 4 hours at 30 minute intervals, 12 volunteers) is reported as “about 2 hours”.
`CC(O)C(=O)NCCO` (stereo not shown) [lactoyl ethanolamide, N-lactoyl ethanolamide] was tested, and the “cooling perception versus placebo solution” value (Example 1, 1% by weight lactoyl ethanolamide in aqueous ethanol (50:50) vs aqueous ethanol alone, other forearm, 10 volunteers) was “no difference in cooling perception”, the “cooling perception versus coolant alone” value (Example 2, 0.2% L-menthol + 1% lactoyl ethanolamide vs 0.2% L-menthol alone, 2 drops per 10 square centimetres, 10 volunteers) was “higher cooling perception” and the “level of cooling versus coolant alone” value [1] was “higher level of cooling”. For the same compound, the “time for which the improved cooling perception was sustained” value [1] was “at least 6 hours”.
